According to patent US20130005810A1, “ORGANIC UNCOUPLING AGENTS” (RHODIA OPERATIONS, priority 2009, published 2013):

Tested on: bacterial strain Shinella granuli
Test: Oxitop respirometric screening test (oxygen overconsumption as signature of uncoupling, 7 days)
Format: cell-based
Details: for uncoupling percentage relative to the control: Shinella granuli, 7 days
Text: In order to evaluate the reduction in sludge production by a chemical uncoupling agent in screening, the respirometric technique of Oxitop® cylinders is used. Bacterial strains known and representative of activated sludge (since they are isolated in aeration tanks) are inoculated into a culture medium in the presence of a certain concentration of the uncoupling agent over a period of 7 days. By comparing the respiration of treated inocula comparatively with controls (untreated inocula), it is possible to measure oxygen overconsumption, a physiological signature of the uncoupling effect on bacteria.
The method and the apparatus used are those described in Example 3 of WO 2004/113236 cited as a reference.
The results obtained in a screening test on the bacterial strain Shinella granuli, are gathered in Table 1 below. They are expressed as an uncoupling percentage relative to the control (not comprising any uncoupling agent). THPS (tetrakis(hydromethyl)phosphonium sulfate) produces uncoupling effects in oxitop® respirometry tests of 16±8% for a rated concentration of 3 ppm, the 95% confidence interval of THPS in terms of uncoupling factor being, […] from results obtained in 26 Oxitop® tests.

SMILES	uncoupling percentage relative to the control (0.1 ppm uncoupling agent)	uncoupling percentage relative to the control (0.5 ppm uncoupling agent)	uncoupling percentage relative to the control (1 ppm uncoupling agent)	uncoupling percentage relative to the control (2 ppm uncoupling agent)	uncoupling percentage relative to the control (3 ppm uncoupling agent)	uncoupling percentage relative to the control (8 ppm uncoupling agent)	uncoupling percentage relative to the control (10 ppm uncoupling agent)	uncoupling percentage relative to the control (20 ppm uncoupling agent)	uncoupling factor (concentration range between 2 and 20 ppm, summary drawn from Table 1)
C[N+](C)(C)CC(=O)[O-] [Glycine betaine, glycine betaine]	5%	18%	0%	20%-26%	24%-25%	20%-26%	12-20%		
OCC(CO)(CO)CO [Pentaerythritol, pentaerythritol]		2%	8%		19%			22%	~20%
COc1cc(C=O)ccc1O [Vanillin, vanillin]	5%	18%	14%	18%-25%	15%-22%	21%-21%	18%-23%	18%	
